Measurements reported in patent US12624068B2, “Exon skipping by peptide nucleic acid derivatives” (OliPass Corporation, priority 2016, dated 2026).
{Fethoc} = N-terminal Fethoc capping group (publication's abbreviation); [C(1O2)] = modified PNA monomer acting as cytosine, C(pOq) type, 1O2; [A(5)] = modified PNA monomer acting as adenine, A(p) type, p=5; [A(6)] = modified PNA monomer acting as adenine, A(p) type, p=6; [G(6)] = modified PNA monomer acting as guanine, G(p) type, p=6; {NH2} = C-terminal non-substituted amino (amide) group

Tests used:
[1] = test system: melanogenesis in B16F10 cells; assay: Melanin content (melanogenesis) in B16F10 cells; assay type: cell-based, mouse; conditions: 24 hours
Description: “TYR-ASO 4” was evaluated for its ability to inhibit the melanogenesis in B16F10 cells as described below.
B16F10 cells grown in 60 mm culture dish containing 5 mL culture medium were treated either with “TYR-ASO 4” at 0 (negative control) or 1 to 1,000 aM, or with 10 or 100 μg/mL arbutin as a positive control. (2 culture dishes per dose) 24 hours later, the cells were subjected to lysis with 200 μL 1N NaOH. Each lysate was collected in 1.5 mL e-tube, and kept overnight at room temperature. The melanin content in each lysate was determined by absorbance at 475 nm on an ELISA reader. The experiment was repeated four times using cells at different passage. The four sets of the melanin content data were pooled for statistical analysis by student's t-test against the melanin content without treatment (negative control).

[2] = test system: human dystrophin pre-mRNA; conditions: DMD patients, intravenous infusion 2 to 20 mg/Kg per week; cited from earlier work
[3] = test system: mouse dystrophin pre-mRNA; assay: Dystrophin nested PCR (Method A) in muscles of mdx mice; assay type: in vivo; conditions: subcutaneous 1,000 pmole/Kg BID for 3 days, quadriceps and gastrocnemius
Description: “DMD-ASO 1” and “DMD-ASO 4” were evaluated for their ability to induce exon skipping in muscles of mdx mice by subcutaneous administration as follows. [ASO Treatment & Sampling Muscle Tissues] The injection solutions were prepared by diluting an aqueous mother stock solution of “DMD-ASO 1” or “DMD-ASO 4” in PBS to 500 nM. Male mdx mice were subcutaneously administered with vehicle only (negative control), “DMD-ASO 1” or “DMD-ASO 4” at 2 mL/Kg, 2× per day (BID) for 3 days. One day after the final dose, the animals were anesthetized with zoletil/rompun, and sacrificed to sample muscle tissues including the heart, diaphragm, gatrocnemius, quadriceps, and triceps. [RNA Extraction] Muscle samples were homogenized by grinding in a tube kept on ice, and subjected to total RNA extraction with 1 mL trizol reagent (Invitrogen) per ca 100 mg muscle tissue. [cDNA Synthesis by One-Step RT-PCR] 500 ng of RNA template was used in a 25 μL reverse transcription reaction using Super Script® One-Step RT-PCR kit with Platinum® Taq polymerase (Cat. Number 10928-042, Invitrogen) and a set of exon-specific primers [DMD-exon 21_forward: (5'→3') […] NO: 103); and DMD-exon 25_reverse: (5'→3') […] [Nested PCR Amplification] 1 μL of cDNA was further amplified in a 20 μL nested PCR (Cat. Number K2612, Bioneer) reaction against a set of primers [DMD-exon 22n_forward: (5'→3') […] NO: 105); and DMD-exon 25n_reverse: (5'→3') […] [Identification of Exon Skipping Product] The skipping of exon 23 was detected only in the animals treated with “DMD-ASO 1” and “DMD-ASO 4”. […] Mdx mice subcutaneously received “DMD-ASO 1” at 0 (negative control) or 10 pmole/Kg, 2× per day for 5 days. (2 animals per group) One day after the final dose, the animals were sacrificed for tissue sampling. The triceps samples were evaluated for the skipping of exon 23 according to the nested RT-PCR method described in “DMD Example 1”.

human PD-1 mRNA = assay: PD-1 nested qPCR in Jurkat cells; assay type: cell-based; conditions: activated Jurkat cells, 100 and 1,000 aM, 24 hours
Description: [Cell Culture & ASO Treatment] Jurkat cells grown in 60 mm culture dish were activated with an anti-CD3 antibody (Cat. Number 16-0037, eBioscience) at […] and an anti-CD28 antibody (Cat. No. 16-0289, eBioscience) at 0.5 μg/mL for 48 hours. Then the culture medium was replaced with fresh medium, and treated with “PD-ASO 3” at 0 (negative control), 10, 100 or 1,000 aM for 24 hours. (4 culture dishes per ASO concentration) [RNA Extraction and cDNA Synthesis by One Step RT-PCR] Total RNA was extracted using RNAeasy mini prep kit (Qiagen, USA) according to the manufacturer's protocol. […] NO: 157); and PD-exon 5_reverse: (5'→3') […] NO: 158)]. Cycle conditions: 50° C. for 30 minutes and 94° C. for 2 minutes, which was followed by 30 cycles of 30 seconds at 94° C., 30 seconds at 53° C., and 1 minutes at 72° C. [Nested qPCR by SYBR] […] NO: 159); and PD-exon 2_reverse: (5'→3') […] NO: 160)] according to the following cycle conditions: 20 seconds at 95° C., 30 seconds at 56° C., and 40 seconds at 72° C. for 40 cycles. The qPCR reaction was probed with SYBR (Bio-Rad, USA).

human IDO1 pre-mRNA = assay: IDO1 nested PCR for exon skipping in SKOV3 cells; assay type: cell-based; conditions: 48 hours
Description: “IDO-ASO 1” was evaluated for its ability to induce exon skipping in SKOV3 cells (Cat. Number HTB-77, ATCC) by IDO1 nested PCR as follows. [Cell Culture & ASO Treatment] SKOV3 (human ovary adenocarcinoma) cells were subcultured in 60 mm culture dish containing 5 mL McCoy's 5A modified medium supplemented with 10% FBS, 1% streptomycin/penicillin, 1% L-glutamine, and 1% sodium pyruvate under 5% CO2 at 37° C., and treated with “IDO-ASO 1” for 48 hours at 0 zM (negative control), 10 zM, 100 zM or 1 aM. [RNA Extraction & cDNA Synthesis by One-Step RT-PCR] Total RNA was extracted from the cells using “Universal RNA Extraction Kit” (Cat. Number 9767, Takara) according to the manufacturer's instructions. […] NO: 114); and IDO-exon 10_reverse: (5'→3') […] [Nested PCR Amplification] 1 μL of cDNA was further amplified in a 20 μL nested PCR reaction (Cat. No. K2612, Bioneer) against a set of exon-specific primers [IDO-exon 4_forward: (5'→3') […] NO: 116); and IDO-exon 9_reverse: (5'→3') […] [Identification of Exon Skipping Product] The PCR products were subjected to electrophoretic separation on a 2% agarose gel. The bands of target size were collected and analyzed by Sanger sequencing. […] [ASO Treatment] SKOV3 cells grown in 60 mm culture dish were treated with “IDO-ASO 5” at 0 (negative control), 1, 3, 10, 30 or 100 aM for 48 hours. [cDNA Synthesis by One-step PCR] […] NO: 119); and IDO-exon 8_reverse: (5'→3') […] [Nested PCR Amplification] 1 μL of cDNA was further amplified in a 20 μL nested PCR (Cat. No. K2612, Bioneer) reaction using a set of exon-specific primers [IDO-exon 1n_forward: (5'→3') […] NO: 121); and IDO-exon 8n_reverse: (5'→3') […] “IDO-ASO 6” was evaluated for its ability to induce exon skipping in SKOV3 cells by IDO1 nested PCR as described in “IDO1 Example 3” unless noted otherwise.

[4] = test system: secretion of kynurenine in SKOV3 cells; assay: Kynurenine secretion assay in SKOV3 cells; assay type: cell-based, human; conditions: 24 hours, with 10 ng/mL γ-interferon
Description: The functional activity of “IDO-ASO 1” was evaluated for its ability to inhibit the secretion of kynurenine in SKOV3 cells as follows.
[Kynurenine Secretion Assay] […] (3 dishes per concentration) Cells were treated with the ASO along with 10 ng/mL γ-interferon to increase the kynurenine secretion. 24 hours later, 200 μL of the culture medium was sampled from each culture dish and mixed with 100 μL 30% trichloroacetic acid. The mixture was vortexed and subjected to centrifugation at 8,000 g for 5 min. 75 μL of the resulting supernatant was mixed with 75 μL Ehrlich reagent (0.8% p-dimethylamino-benzaldehyde in acetic acid), and the mixture was subjected to a quantification for kynurenine at 490 nm on an ELISA reader. [PLOS One 5(8): e63301 (2013)]

OC[C@H]1O[C@@H](Oc2ccc(O)cc2)[C@H](O)[C@@H](O)[C@@H]1O [arbutin]
decrease of melanin content ([1]; 10 μg/mL): ~15%
decrease of melanin content ([1]; 100 μg/mL): 25%

Eteplirsen
skipping of exon 51 (IHC of muscle biopsy for full-length dystrophin) [2]: induced the skipping of exon 51
tolerability [2]: well tolerated

Fethoc-A(6)CT-TTG(6)-CA(6)G-A(6)GC(1O2)-CTC(1O2)-AA(6)-NH2 (antisense ACTTTGCAGAGCCTCAA; all peptide nucleic acid (PNA), [A(6)] at 1, 8, 10, 17, [G(6)] at 6, [C(1O2)] at 12, 15, 5' {Fethoc}, 3' {NH2}; peptide nucleic acid backbone) [DMD-ASO 4]
skipping of dystrophin exon 23 (nested PCR Method A) [3]: detected

Fethoc-C(1O2)TG(6)-GG(6)G-AG(6)T-CTG-A(5)G-NH2 (CTGGGGAGTCTGAG; splice-switching; all peptide nucleic acid (PNA), [C(1O2)] at 1, [G(6)] at 3, 5, 8, [A(5)] at 13, 5' {Fethoc}, 3' {NH2}; peptide nucleic acid backbone) [PD-ASO 1]
decrease of PD-1 mRNA level (nested qPCR) (human PD-1 mRNA): ~60%

Fethoc-GG(6)A-A(5)TT-A(5)CC(1O2)-TAA(5)-A-NH2 (GGAATTACCTAAA; splice-switching; all peptide nucleic acid (PNA), [G(6)] at 2, [A(5)] at 4, 7, 12, [C(1O2)] at 9, 5' {Fethoc}, 3' {NH2}; peptide nucleic acid backbone) [IDO-ASO 1]
intensity of the full-length IDO-1 mRNA by nested PCR (human IDO1 pre-mRNA; 1 aM): increased
intensity of the full-length IDO-1 mRNA by nested PCR (human IDO1 pre-mRNA; 10 or 100 zM): decreased
IDO1 exon skipping band by nested PCR (human IDO1 pre-mRNA; 10 zM or 1 aM): not detected
skipping of IDO1 exons 6-7 by nested PCR (human IDO1 pre-mRNA; 100 zM): detected
decrease of kynurenine secretion ([4]; 1 fM): ~40%
secretion of kynurenine ([4]; 10 zM to 1 fM except 1 aM): significantly (student's t-test) decreased
